# Measurements reported in US12077503B2, “Substituted cyclic amides and their use as herbicides” (FMC CORPORATION, priority 2015, dated 2024).
# How the values were obtained:
# Assay type in all cases: in vivo
# [1] = test system: ryegrass, Italian (Italian ryegrass, Lolium multiflorum); assay: Test A preemergence; conditions: for Plant response rating, Ryegrass, Italian: preemergence
# In short: (§1)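 Greenhouse, ~10 d after spray; visual injury vs untreated controls, 0 = no effect, 100 = complete control. Preemergence: directed soil spray over planted seeds. Postemergence: plants 2–10 cm, 1–2 leaf stage. Loam/sand blend. Compound in non-phytotoxic solvent with surfactant.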
# [2] = test system: ragweed (common ragweed, Ambrosia elatior); assay: Test A preemergence; conditions: preemergence
# In short: as §1
# [3] = test system: giant foxtail (Setaria faberii); assay: Test A preemergence
# In short: as §1
# [4] = test system: barnyardgrass (Echinochloa crus-galli); assay: Test A preemergence
# In short: as §1
# [5] = test system: pigweed (Amaranthus retroflexus); assay: Test A preemergence; conditions: for Plant response rating, Pigweed: preemergence
# Kochia (Kochia scoparia) [6] = assay: Test A preemergence
# In short: as §1
# [7] = test system: ducksalad (Heteranthera limosa); assay: Test B flooded paddy test; conditions: Flood, 0 to 100 scale where 0 is no effect and 100 is complete control, 13 to 15 d
# In short: (§2)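 Plants at 2-leaf stage flooded to 3 cm above soil, with compounds applied directly to paddy water and that depth maintained. Plants kept in greenhouse 13–15 d. Visual rating versus controls on a 0 (no effect) to 100 (complete control) scale.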
# [8] = test system: sedge, umbrella (small-flower umbrella sedge, Cyperus difformis); assay: Test B flooded paddy test; conditions: Flood, 0 to 100 scale where 0 is no effect and 100 is complete control, 13 to 15 d
# In short: as §2
# [9] = test system: barnyardgrass (Echinochloa crus-galli); assay: Test B flooded paddy test; conditions: Flood, 0 to 100 scale where 0 is no effect and 100 is complete control, 13 to 15 d
# In short: as §2
# rice (Oryra sativa) = assay: Test B flooded paddy test; conditions: Flood, 0 to 100 scale where 0 is no effect and 100 is complete control, 13 to 15 d
# In short: as §2
# [10] = test system: ryegrass, Italian (Italian ryegrass, Lolium multiflorum); assay: Test A postemergence; conditions: postemergence
# In short: as §1
# [11] = test system: ragweed (common ragweed, Ambrosia elatior); assay: Test A postemergence; conditions: postemergence
# In short: as §1
# [12] = test system: giant foxtail (Setaria faberii); assay: Test A postemergence; conditions: postemergence
# In short: as §1
# corn (Zea mays) = assay: Test A postemergence; conditions: postemergence
# In short: as §1
# [13] = test system: blackgrass (Alopecurus myosuroides); assay: Test A postemergence; conditions: postemergence
# In short: as §1
# [14] = test system: barnyardgrass (Echinochloa crus-galli); assay: Test A postemergence; conditions: postemergence
# In short: as §1
# [15] = test system: pigweed (Amaranthus retroflexus); assay: Test A postemergence; conditions: postemergence
# In short: as §1
# Kochia (Kochia scoparia) [16] = assay: Test A postemergence; conditions: postemergence
# In short: as §1
# [17] = test system: wheat (Triticum aestivum); assay: Test A postemergence; conditions: postemergence
# In short: as §1
# [18] = test system: Galium (catchweed bedstraw, Galium aparine); assay: Test A postemergence; conditions: postemergence
# In short: as §1
# [19] = test system: blackgrass (Alopecurus myosuroides); assay: Test C preemergence; conditions: for Plant response rating, Blackgrass: scale 0 to 100, 0 no effect, 100 complete control
# In short: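 Seeds in loam-sand soil treated preemergence, or plants in peat-based medium sprayed postemergence at 2–18 cm (1- to 4-leaf stage), with compound in a non-phytotoxic solvent mixture containing surfactant. Greenhouse-held 13–15 d, then visually rated against controls on a 0–100 scale (0 = no effect, 100 = complete control); dash = not tested.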
# [20] = 125 g ai/ha, 0 to 100 scale (0 no effect, 100 complete control)
# [21] = Preemergence, 500 g ai/ha, visual injury approx. 10 d
# [22] = 125 g ai/ha, preemergence, 0 to 100 scale (0 no effect, 100 complete control)
# [23] = 125 g ai/ha, visual injury rating on 0 to 100 scale (0 no effect, 100 complete control), approx. 10 d
# [24] = 500 g ai/ha, 0 to 100 scale, 0 no effect, 100 complete control
# [25] = 125 g ai/ha, visual rating after approx. 10 d, 0 to 100 scale where 0 is no effect and 100 is complete control
# [26] = 500 g ai/ha, 0 to 100 scale, 0 = no effect, 100 = complete control
# [27] = 125 g ai/ha, Preemergence, visual injury after approximately 10 d, 0 to 100 scale where 0 is no effect and 100 is complete control
# [28] = 500 g ai/ha, preemergence, 0 to 100 scale, 0 = no effect, 100 = complete control
# [29] = 125 g ai/ha, visual injury after approximately 10 d, 0 to 100 scale (0 no effect, 100 complete control)
# [30] = 500 g ai/ha, visual injury, 0 to 100 scale (0 no effect, 100 complete control), approx. 10 d
# [31] = 125 g ai/ha, visual rating after approx. 10 d, 0 to 100 scale (0 no effect, 100 complete control)
structure (smiles),measurement,setting,value
Cc1ccc(C2CN(C)C(=O)C2C(=O)Nc2cccc(F)c2F)cc1F (stereo not shown) [Compound 464],"Plant response rating, Ryegrass, Italian",[1]; [20],70
same,"Ryegrass, Italian plant response rating (0 to 100 scale, 0 is no effect, 100 is complete control)",[1]; [21],90
same,"Plant response rating, Ragweed",[2]; [20],50
same,"Plant response rating, Foxtail, Giant",[3]; [22],90
same,"Foxtail, Giant plant response rating (0 to 100 scale, 0 is no effect, 100 is complete control)",[3]; [21],90
same,"Plant response rating, Barnyardgrass",[4]; [22],90
same,"Barnyardgrass plant response rating (0 to 100 scale, 0 is no effect, 100 is complete control)",[4]; [21],90
same,"Plant response rating, Pigweed",[5]; [20],70
same,"Pigweed plant response rating (0 to 100 scale, 0 is no effect, 100 is complete control)",[5]; [21],70
same,"Plant response rating, Kochia",Kochia (Kochia scoparia) [6]; [22],70
same,"Kochia plant response rating (0 to 100 scale, 0 is no effect, 100 is complete control)",Kochia (Kochia scoparia) [6]; [21],80
same,"Plant response rating, Ducksalad",[7]; 250 g ai/ha,100
same,"Plant response rating, Sedge, Umbrella",[8]; 250 g ai/ha,0
same,"Plant response rating, Barnyardgrass",[9]; 250 g ai/ha,70
same,"Plant response rating, Rice",rice (Oryra sativa); 250 g ai/ha,20
same,"Ryegrass, Italian plant response rating",[10]; [23],70
same,"Plant response rating, Ryegrass, Italian",[10]; [24],80
same,Ragweed plant response rating,[11]; [23],30
same,"Plant response rating, Ragweed",[11]; [24],30
same,"Foxtail, Giant plant response rating",[12]; [23],90
same,"Plant response rating, Foxtail, Giant",[12]; [24],90
same,Corn plant response rating,corn (Zea mays); [23],90
same,"Plant response rating, Corn",corn (Zea mays); [24],90
same,Blackgrass plant response rating,[13]; [23],60
same,"Plant response rating, Blackgrass",[13]; [24],70
same,Barnyardgrass plant response rating,[14]; [23],90
same,"Plant response rating, Barnyardgrass",[14]; [24],90
same,Pigweed plant response rating,[15]; [23],40
same,"Plant response rating, Pigweed",[15]; [24],50
same,Kochia plant response rating,Kochia (Kochia scoparia) [16]; [23],50
same,"Plant response rating, Kochia",Kochia (Kochia scoparia) [16]; [24],60
same,Wheat plant response rating,[17]; [23],70
same,"Plant response rating, Wheat",[17]; [24],70
same,Galium plant response rating,[18]; [23],60
same,"Plant response rating, Galium",[18]; [24],70
same,"Plant response rating, Blackgrass",[19]; 31 g ai/ha,80
same,"Plant response rating, Blackgrass",[19]; 62 g ai/ha,85
same,"Plant response rating, Blackgrass",[19]; 125 g ai/ha,85
same,"Plant response rating, Blackgrass",[19]; 250 g ai/ha,85
O=C1NCC(c2cccc(OC(F)(F)C(F)F)c2)C1C(=O)Nc1ccccc1F (racemic) [Compound 695],"Plant response rating, Ryegrass, Italian",[1]; [25],40
same,"Plant response rating, Ryegrass, Italian",[1]; [26],30
same,"Plant response rating, Ragweed",[2]; [25],20
same,"Plant response rating, Ragweed",[2]; [26],40
same,"Plant response rating, Foxtail, Giant",[3]; [27],90
same,"Plant response rating, Foxtail, Giant",[3]; [28],90
same,"Plant response rating, Barnyardgrass",[4]; [27],90
same,"Plant response rating, Barnyardgrass",[4]; [28],90
same,"Plant response rating, Pigweed",[5]; [25],30
same,"Plant response rating, Pigweed",[5]; [26],40
same,"Plant response rating, Kochia",Kochia (Kochia scoparia) [6]; [27],30
same,"Plant response rating, Kochia",Kochia (Kochia scoparia) [6]; [28],90
same,"Plant response rating, Ducksalad",[7]; 500 g ai/ha,100
same,"Plant response rating, Sedge, Umbrella",[8]; 500 g ai/ha,0
same,"Plant response rating, Barnyardgrass",[9]; 500 g ai/ha,80
same,"Plant response rating, Rice",rice (Oryra sativa); 500 g ai/ha,0
same,"Plant response rating, Ryegrass, Italian",[10]; [29],0
same,"Plant response rating, Ryegrass, Italian",[10]; [30],20
same,"Plant response rating, Ragweed",[11]; [29],20
same,"Plant response rating, Ragweed",[11]; [30],40
same,"Plant response rating, Foxtail, Giant",[12]; [29],80
same,"Plant response rating, Foxtail, Giant",[12]; [30],80
same,"Plant response rating, Corn",corn (Zea mays); [29],80
same,"Plant response rating, Corn",corn (Zea mays); [30],80
same,"Plant response rating, Blackgrass",[13]; [31],0
same,"Plant response rating, Blackgrass",[13]; [30],40
same,"Plant response rating, Barnyardgrass",[14]; [31],80
same,"Plant response rating, Barnyardgrass",[14]; [30],90
same,"Plant response rating, Pigweed",[15]; [29],20
same,"Plant response rating, Pigweed",[15]; [30],30
same,"Plant response rating, Kochia",Kochia (Kochia scoparia) [16]; [29],30
same,"Plant response rating, Kochia",Kochia (Kochia scoparia) [16]; [30],50
same,"Plant response rating, Wheat",[17]; [29],20
same,"Plant response rating, Wheat",[17]; [30],40
same,"Plant response rating, Galium",[18]; [29],50
same,"Plant response rating, Galium",[18]; [30],40
same,"Plant response rating (scale of 0 to 100), Blackgrass","[19]; 31 g ai/ha, 0 is no effect, 100 is complete control",0
same,"Plant response rating, Blackgrass",[19]; 62 g ai/ha,20
same,"Plant response rating, Blackgrass",[19]; 125 g ai/ha,90
same,"Plant response rating, Blackgrass",[19]; 250 g ai/ha,90
